Source: PubChem BioAssay (NCI)
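These data come from cells grown in 96-well plates and exposed to compound for 48 hours at five concentrations. The concentration for 50% growth inhibition is given as GI50. At the TGI there is no net growth.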

Legend:
Experiment in all cases: NCI tumour cell line growth inhibition, 48 h
ACHN renal = system: ACHN renal
MDA-MB-435 = system: MDA-MB-435
CCRF-CEM leukemia = system: CCRF-CEM leukemia
NCI-H226 lung = system: NCI-H226 lung
RXF 393 renal = system: RXF 393 renal
HT29 colon = system: HT29 colon
HCT-116 colon = system: HCT-116 colon
PC-3 prostate = system: PC-3 prostate
HCC-2998 colon = system: HCC-2998 colon
CAKI-1 renal = system: CAKI-1 renal
SNB-19 CNS = system: SNB-19 CNS
SF-268 CNS = system: SF-268 CNS
OVCAR-3 ovarian = system: OVCAR-3 ovarian
U251 CNS = system: U251 CNS
SN12C renal = system: SN12C renal
MCF7 breast = system: MCF7 breast
SR leukemia = system: SR leukemia
SF-539 CNS = system: SF-539 CNS
UACC-62 melanoma = system: UACC-62 melanoma
LOX IMVI melanoma = system: LOX IMVI melanoma
OVCAR-8 ovarian = system: OVCAR-8 ovarian
MOLT-4 leukemia = system: MOLT-4 leukemia
IGROV1 ovarian = system: IGROV1 ovarian
MALME-3M melanoma = system: MALME-3M melanoma
HOP-62 NSCLC = system: HOP-62 NSCLC
SNB-75 CNS = system: SNB-75 CNS

SMILES: NC(=O)c1ccccc1Nc1ccc2nnc(-c3ccncc3)n2n1
- GI50 (ACHN renal): 6.32 µM
- TGI (ACHN renal): 20.7 µM
- GI50 (MDA-MB-435): 7.1 µM
- TGI (MDA-MB-435): 26.9 µM
- GI50 (CCRF-CEM leukemia): 3.12 µM
- TGI (CCRF-CEM leukemia): 17.4 µM
- GI50 (NCI-H226 lung): 15 µM
- TGI (NCI-H226 lung): 44.4 µM
- GI50 (RXF 393 renal): 3.77 µM
- TGI (RXF 393 renal): 18.1 µM
- GI50 (HT29 colon): 6.39 µM
- TGI (HT29 colon): 19.2 µM
- GI50 (HCT-116 colon): 3.77 µM
- TGI (HCT-116 colon): 14.3 µM
- GI50 (PC-3 prostate): 16.2 µM
- TGI (PC-3 prostate): 30.3 µM
- GI50 (HCC-2998 colon): 16.6 µM
- TGI (HCC-2998 colon): 34.5 µM
- GI50 (CAKI-1 renal): 2.45 µM
- TGI (CAKI-1 renal): 6.42 µM
- GI50 (SNB-19 CNS): 14.4 µM
- TGI (SNB-19 CNS): 31.8 µM
- GI50 (SF-268 CNS): 5.56 µM
- TGI (SF-268 CNS): 21 µM
- GI50 (OVCAR-3 ovarian): 13.7 µM
- TGI (OVCAR-3 ovarian): 26.6 µM
- GI50 (U251 CNS): 7.4 µM
- TGI (U251 CNS): 20.6 µM
- GI50 (SN12C renal): 3.69 µM
- TGI (SN12C renal): 18.1 µM
- GI50 (MCF7 breast): 3.1 µM
- TGI (MCF7 breast): 16.1 µM
- GI50 (SR leukemia): 2.83 µM
- TGI (SR leukemia): 14.6 µM
- GI50 (SF-539 CNS): 15.3 µM
- TGI (SF-539 CNS): 28.9 µM
- GI50 (UACC-62 melanoma): 7.15 µM
- TGI (UACC-62 melanoma): 22.2 µM
- GI50 (LOX IMVI melanoma): 1.87 µM
- TGI (LOX IMVI melanoma): 3.75 µM
- GI50 (OVCAR-8 ovarian): 8.07 µM
- TGI (OVCAR-8 ovarian): 31.5 µM
- GI50 (MOLT-4 leukemia): 5.18 µM
- TGI (MOLT-4 leukemia): 30.4 µM
- GI50 (IGROV1 ovarian): 2.23 µM
- TGI (IGROV1 ovarian): 5.41 µM
- GI50 (MALME-3M melanoma): 8.38 µM
- TGI (MALME-3M melanoma): 22.5 µM
- GI50 (HOP-62 NSCLC): 9.93 µM
- TGI (HOP-62 NSCLC): 22.4 µM
- GI50 (SNB-75 CNS): 13.6 µM
- TGI (SNB-75 CNS): 26.5 µM
